The target of assay [1] is KDR kinase (Homo sapiens, UniProt P35968). Nature of the assay: KDR AlphaScreen assay. To be noted: KDR IC50 (μM). On the technique in general: Alpha assays give light when donor and acceptor beads are brought close together.
Assay [2] has as its target Pim3 kinase (Homo sapiens, UniProt Q86V86). Nature of the assay: Pim3 ATP depletion assay. It is filed as biochemical. Conditions: read-out: IC50 (μM) PIM3.
Assay [3] deals with Pim1 kinase (Homo sapiens, UniProt P11309). Put plainly: Pim1 ATP depletion assay.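 Further: Luciferase-luciferin luminescence readout of residual ATP after PIM1 transfers phosphate to a peptide substrate, 40 µM ATP added, reaction run to roughly half ATP consumption.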 Type of assay: biochemical.
Pim1 kinase, sequence (P11309 whole entry): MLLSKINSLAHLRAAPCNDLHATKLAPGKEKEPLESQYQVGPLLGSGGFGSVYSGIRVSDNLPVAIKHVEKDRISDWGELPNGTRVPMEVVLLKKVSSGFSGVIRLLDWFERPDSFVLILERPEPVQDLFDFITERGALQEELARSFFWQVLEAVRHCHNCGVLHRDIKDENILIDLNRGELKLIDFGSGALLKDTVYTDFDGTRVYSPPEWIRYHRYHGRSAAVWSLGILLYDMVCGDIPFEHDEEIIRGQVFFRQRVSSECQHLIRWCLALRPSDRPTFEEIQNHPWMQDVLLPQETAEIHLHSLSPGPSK
Assay [4] has as its target T1, human full length PKCE enzyme (Homo sapiens, UniProt Q02156).
T1 construct: human full length PKCE enzyme purchased from InVitrogen; purchased InVitrogen
T1 sequence (Q02156 1-737): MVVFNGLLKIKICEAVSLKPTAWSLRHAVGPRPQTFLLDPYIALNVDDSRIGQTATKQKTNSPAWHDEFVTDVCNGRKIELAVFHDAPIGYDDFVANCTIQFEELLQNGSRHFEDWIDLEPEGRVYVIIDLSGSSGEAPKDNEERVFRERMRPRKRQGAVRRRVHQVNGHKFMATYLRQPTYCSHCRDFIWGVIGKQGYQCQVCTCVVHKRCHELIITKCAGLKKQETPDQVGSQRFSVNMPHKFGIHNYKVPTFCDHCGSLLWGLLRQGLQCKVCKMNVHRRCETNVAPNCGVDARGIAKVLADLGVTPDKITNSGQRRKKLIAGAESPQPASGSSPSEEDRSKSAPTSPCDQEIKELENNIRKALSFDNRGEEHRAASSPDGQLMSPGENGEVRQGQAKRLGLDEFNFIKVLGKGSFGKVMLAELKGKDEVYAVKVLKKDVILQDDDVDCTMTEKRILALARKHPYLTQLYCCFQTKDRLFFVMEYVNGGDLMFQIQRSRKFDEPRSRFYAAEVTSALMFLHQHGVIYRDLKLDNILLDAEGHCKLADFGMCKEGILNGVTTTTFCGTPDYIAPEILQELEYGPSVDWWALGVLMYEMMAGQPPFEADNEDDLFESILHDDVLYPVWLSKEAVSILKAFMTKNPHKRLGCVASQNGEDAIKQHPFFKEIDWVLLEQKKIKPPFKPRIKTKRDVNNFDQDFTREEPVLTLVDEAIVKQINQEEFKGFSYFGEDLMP
Nature of the assay: In vitro PKCE assay. Type of assay: biochemical. To be noted: 10 nM enzyme, 40 uM peptide substrate, 20 uM ATP, KinaseGlo Plus readout; read-out: PKCε IC50. Background: Kinase-Glo measures the ATP left after a reaction by luminescence.

The target of assay [5] is Pim2 kinase (Homo sapiens, UniProt Q9P1W9). Put plainly: Pim2 ATP depletion assay.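 Further: Luciferase-based luminescent readout of ATP remaining after PIM2 phosphorylates a BAD peptide, final 5 nM enzyme, 4 µM ATP, 10 µM peptide, 2.5% DMSO, run to roughly half ATP consumption.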 It is filed as biochemical. Conditions: read-out: IC50 (μM) PIM2.
Pim2 kinase, sequence (Q9P1W9 whole entry): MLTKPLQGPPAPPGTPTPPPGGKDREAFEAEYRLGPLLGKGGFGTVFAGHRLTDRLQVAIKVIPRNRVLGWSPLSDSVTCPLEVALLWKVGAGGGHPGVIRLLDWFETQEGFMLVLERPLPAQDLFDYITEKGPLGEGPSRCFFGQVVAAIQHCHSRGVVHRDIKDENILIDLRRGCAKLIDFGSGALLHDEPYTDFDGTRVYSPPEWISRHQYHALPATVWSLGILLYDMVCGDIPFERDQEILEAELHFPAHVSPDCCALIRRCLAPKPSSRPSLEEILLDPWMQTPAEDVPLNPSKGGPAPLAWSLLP
[6] abbreviates: Pim1 ATP depletion assay, read-out: IC50 (μM) PIM1.

Structures are written as SMILES. Several values for one entry are separate records, joined by “and”; a condition that tells them apart may be missing. Equal values may be shown once. Read-outs that look alike come from different tables or passages of the source.

By IC50 is commonly meant the concentration that gives 50% inhibition.

KDR kinase, sequence (P35968 20-1356): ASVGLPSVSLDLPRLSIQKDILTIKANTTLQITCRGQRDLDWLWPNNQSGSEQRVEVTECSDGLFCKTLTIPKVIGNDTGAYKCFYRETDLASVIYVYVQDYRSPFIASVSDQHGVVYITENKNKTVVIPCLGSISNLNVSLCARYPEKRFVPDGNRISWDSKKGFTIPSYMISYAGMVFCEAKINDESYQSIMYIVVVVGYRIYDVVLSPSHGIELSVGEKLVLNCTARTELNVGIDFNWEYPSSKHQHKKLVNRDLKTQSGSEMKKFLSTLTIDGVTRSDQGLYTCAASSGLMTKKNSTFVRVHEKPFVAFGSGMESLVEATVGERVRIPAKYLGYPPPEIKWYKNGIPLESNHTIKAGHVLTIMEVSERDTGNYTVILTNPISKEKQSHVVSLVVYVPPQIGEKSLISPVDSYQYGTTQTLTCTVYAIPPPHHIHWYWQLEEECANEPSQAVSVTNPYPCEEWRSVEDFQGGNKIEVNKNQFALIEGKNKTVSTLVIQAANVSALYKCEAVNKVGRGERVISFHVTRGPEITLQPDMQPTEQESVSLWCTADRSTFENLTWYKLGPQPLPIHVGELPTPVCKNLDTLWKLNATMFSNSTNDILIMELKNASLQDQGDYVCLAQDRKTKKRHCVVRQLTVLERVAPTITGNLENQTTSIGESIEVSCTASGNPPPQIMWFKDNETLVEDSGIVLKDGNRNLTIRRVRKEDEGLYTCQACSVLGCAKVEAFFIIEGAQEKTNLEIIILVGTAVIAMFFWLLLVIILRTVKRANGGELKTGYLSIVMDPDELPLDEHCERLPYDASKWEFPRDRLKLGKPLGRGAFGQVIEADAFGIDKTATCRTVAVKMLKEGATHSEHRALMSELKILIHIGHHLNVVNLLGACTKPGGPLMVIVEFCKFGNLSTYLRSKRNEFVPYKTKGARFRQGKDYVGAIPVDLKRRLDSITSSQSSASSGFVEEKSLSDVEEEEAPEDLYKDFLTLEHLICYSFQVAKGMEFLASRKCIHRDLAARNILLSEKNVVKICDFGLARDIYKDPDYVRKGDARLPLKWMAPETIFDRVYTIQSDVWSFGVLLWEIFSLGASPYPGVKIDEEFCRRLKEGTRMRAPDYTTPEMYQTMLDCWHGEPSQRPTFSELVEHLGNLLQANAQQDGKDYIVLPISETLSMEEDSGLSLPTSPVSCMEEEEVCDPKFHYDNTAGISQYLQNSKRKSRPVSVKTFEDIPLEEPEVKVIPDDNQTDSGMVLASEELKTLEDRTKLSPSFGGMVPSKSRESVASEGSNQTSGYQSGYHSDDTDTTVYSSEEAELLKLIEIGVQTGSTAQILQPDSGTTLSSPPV

In the case of `NC(=O)c1ccc(N2CCCCC2)c(NC(=O)c2nc(Br)cnc2N)c1` [Example 133, 3-amino-6-bromo-N-(5-carbamoyl-2-piperidin-1-yl-phenyl)pyrazine-2-carboxamide], the IC50 is 1 to 10 µM in assay [1]; less than 1 µM in assay [2]; less than 1 µM in assay [3] (setting [6]); greater than 25000 nM in assay [4]; less than 1 µM in assay [5].

Turning to `Nc1nc(N)c(C(=O)Nc2[nH]c(=O)ncc2N2CCCC(N)C2)nc1Cl` (centres unmarked) [Example 134, 3,5-diamino-N-[5-(3-amino-piperidin-1-yl)-2-oxo-2,3-dihydropyrimidin-4-yl]-6-chloropyrazine-2-carboxamide], the IC50 was 1 to 10 µM in assay [1]; less than 1 µM in assay [2]; less than 1 µM in assay [3] (setting [6]); 1000 to 10000 nM in assay [4]; less than 1 µM in assay [5].

In the case of `NCC1CCCN(c2cnc(=O)[nH]c2NC(=O)c2nccnc2N)C1` (centres unmarked) [Example 135, 3-amino-N-{5-[3-(amino-methyl)piperidin-1-yl]-2-oxo-2,3-dihydropyrimidin-4-yl}-pyrazine-2-carboxamide], the half-inhibitory concentration (IC50) in assay [1] was 1 to 10 µM; in assay [2] it was less than 1 µM; in assay [3] (setting [6]) it was less than 1 µM; in assay [4], less than 1000 nM; in assay [5], less than 1 µM.

On to `NCC(=O)N1CCN(c2ccncc2NC(=O)c2nc(Cl)c(N)nc2N)CC1` [Example 186, 3,5-diamino-N-{4-[4-(amino-acetyl)piperazin-1-yl]pyridin-3-yl}-6-chloropyrazine-2-carboxamide], for which the IC50 in assay [1] is 1 to 10 µM; in assay [2], less than 1 µM; in assay [3] (setting [6]), less than 1 µM; in assay [4] it was 1000 to 10000 nM; in assay [5] it was less than 1 µM.

`NCCC(=O)N1CCN(c2ccncc2NC(=O)c2nccnc2N)CC1` [Example 188, 3-amino-N-{4-[4-(3-aminopropanoyl)piperazin-1-yl]pyridin-3-yl}pyrazine-2-carboxamide]: the IC50 in assay [1] is 1 to 10 µM; in assay [2], less than 1 µM; in assay [3], less than 1 µM; in assay [4], less than 1000 nM; in assay [5] it was 1 to 10 µM.

Take `Nc1nccnc1C(=O)Nc1cccnc1N1CCCC(N)C1` (centres unmarked) [Example 196, 3-amino-N-[2-(3-aminopiperidin-1-yl)pyridin-3-yl]pyrazine-2-carboxamide]: the IC50 in assay [1] was greater than 25 µM; in assay [2], 1 to 10 µM; in assay [3] (setting [6]) it was 1 to 10 µM; in assay [4], 1000 to 10000 nM; in assay [5], 10 to 25 µM.

As for `Nc1nccnc1C(=O)Nc1cnccc1N1CCCNCC1` [Example 199, 3-amino-N-[4-(1,4-diazepan-1-yl)pyridin-3-yl]pyrazine-2-carboxamide], the IC50 was 1 to 10 µM in assay [1]; > 25 µM and 10 to 25 µM in assay [2]; 1 to 10 µM in assay [3] (setting [6]); 1000 to 10000 nM in assay [4]; greater than 25 µM in assay [5].

`Nc1ncc(Br)nc1C(=O)Nc1ccccc1N1CCCC(N)C1` (centres unmarked) [Example 204, 3-amino-N-[2-(3-aminopiperidin-1-yl)phenyl]-6-bromopyrazine-2-carboxamide]: the IC50 in assay [1] was 1 to 10 µM; in assay [2] it was less than 1 µM; in assay [3] (setting [6]) it was less than 1 µM; in assay [4], less than 1000 nM; in assay [5], less than 1 µM.

Consider `Nc1ncc(Br)nc1C(=O)Nc1ccccc1N1CCNCC1` [Example 206, 3-amino-6-bromo-N-(2-piperazin-1-ylphenyl)pyrazine-2-carboxamide], for which the IC50 in assay [1] is 1 to 10 µM; in assay [2], less than 1 µM; in assay [3] (setting [6]) it was less than 1 µM; in assay [4], less than 1000 nM; in assay [5], 1 to 10 µM.

In the case of `COc1ccc(N2CCC(N)CC2)c(NC(=O)c2nc(Br)cnc2N)c1` [Example 211, 3-amino-N-[2-(4-aminopiperidin-1-yl)-5-methoxyphenyl]-6-bromopyrazine-2-carboxamide], the IC50 in assay [1] is 1 to 10 µM; in assay [2], less than 1 µM; in assay [3] (setting [6]) it was less than 1 µM; in assay [4], less than 1000 nM; in assay [5], less than 1 µM.
